Measured values taken from patent publication US20260248787A9, “MEDICAMENT FOR TREATING CANCER COMPRISING OPTICALLY ACTIVE AZABICYCLO RING DERIVATIVE” (Sumitomo Pharma Co., Ltd., priority 2023, published 2026).
Marks after values point to notes of the source that are not given here.

Experiment: Phase 1/2 first-in-human clinical study, safety evaluation (DLT, TEAE, SAE)

## C=C1C[C@@H]2CC[C@H]1[C@@H](C(=O)N1CCC3(CC1)CN(c1ncncc1Oc1ccc(F)cc1C(=O)N(C(C)C)C(C)C)C3)N2 [the present compound, 5-fluoro-2-[(4-{7-[(1S,3S,4R)-5-methylidene-2-azabicyclo[2.2.2]octane-3-carbonyl]-2,7-diazaspiro[3.5]nonan-2-yl}pyrimidin-5-yl)oxy]-N,N-di(propan-2-yl)benzamide]
40 mg BID Arm B (N=4; one patient not DLT evaluable)
  Patients with any DLTs: 0* n (%) and (0.0) n (%)
24 patients enrolled
  cases of differentiation syndrome in patients with MLLr or NPM1m: no cases
  grade of the majority of TEAEs related to the present compound: Grade 1 or 2
  patients who experienced at least one TEAE: 24 patients
  related TEAE leading to dose withdrawn or dose reduction: No related TEAE leading to dose withdrawn or dose reduction
24 patients enrolled (40-120 mg BID Arm A, 40-60 mg BID Arm B)
  patients who developed DLT: none
24 patients, Arm A + Arm B
  patients with fatal SAEs, total (all unrelated): 8 patients
  patients with serious adverse events (SAEs), total: 15 patients
40 to 300 mg BID (Examples 1 and 5)
  safety in humans: confirmed to be safe
43 patients, 40-200 mg BID
  Treatment-related QT interval prolongation events: not reported
  cases of differentiation syndrome in patients with MLLr or NPM1m: no cases
  drug-related AE resulting in permanent treatment discontinuation: No drug-related AE
  grade of the majority of TEAEs: Grade 1 or Grade 2
  treatment-related deaths: no treatment-related deaths
43 patients, any dose level of 40-200 mg
  DLTs: No DLTs
43 patients, patient with TP-53 mutation
  cases of suspected differentiation syndrome related to the present compound: One
57 patients, 40-300 mg
  Differentiation syndrome (DS): 3 patients
  drug-related AE resulting in permanent treatment discontinuation: No drug-related AE
  treatment-related deaths: no treatment-related deaths
57 patients, any dose level of 40-300 mg
  DLTs: no DLTs
Arm A N=14, Any Grade
  Patients with Any TEAE: 14 (100.0) n (%)
  TEAE: Alanine aminotransferase increased: 1 (7.1) n (%)
  TEAE: Anaemia: 5 (35.7) n (%)
  TEAE: Aspartate aminotransferase increased: 2 (14.3) n (%)
  TEAE: Blood and lymphatic system disorders: 10 (71.4) n (%)
  TEAE: Constipation: 3 (21.4) n (%)
  TEAE: Decreased appetite: 3 (21.4) n (%)
  TEAE: Disease progression: 1 (7.1) n (%)
  TEAE: Dyspnoea: 3 (21.4) n (%)
  TEAE: Epistaxis: 1 (7.1) n (%)
  TEAE: Fatigue: 3 (21.4) n (%)
  TEAE: Gastrointestinal disorders: 9 (64.3) n (%)
  TEAE: General disorders and administration site disorders: 8 (57.1) n (%)
  TEAE: Headache: 5 (35.7) n (%)
  TEAE: Hemorrhoids: 0 n (%)
  TEAE: Hypertriglyceridaemia: 1 (7.1) n (%)
  TEAE: Hypoalbuminaemia: 3 (21.4) n (%)
  TEAE: Hypocalcaemia: 3 (21.4) n (%)
  TEAE: Hypokalaemia: 2 (14.3) n (%)
  TEAE: Hypomagnaesemia: 3 (21.4) n (%)
  TEAE: Hyponatraemia: 4 (28.6) n (%)
  TEAE: Infections and Infestations: 8 (57.1) n (%)
  TEAE: Investigations: 10 (71.4) n (%)
  TEAE: Metabolism and nutrition disorders: 11 (78.6) n (%)
  TEAE: Musculoskeletal and connective tissue disorders: 7 (50.0) n (%)
  TEAE: Nausea: 5 (35.7) n (%)
  TEAE: Nervous System Disorders: 7 (50.0) n (%)
  TEAE: Oedema peripheral: 2 (14.3) n (%)
  TEAE: Pain in extremity: 3 (21.4) n (%)
  TEAE: Platelet count decreased: 3 (21.4) n (%)
  TEAE: Pneumonia: 2 (14.3) n (%)
  TEAE: Pruritus: 3 (21.4) n (%)
  TEAE: Pyrexia: 3 (21.4) n (%)
  TEAE: Respiratory, thoracic and mediastinal disorders: 6 (42.9) n (%)
  TEAE: Sepsis: 2 (14.3) n (%)
  TEAE: Skin and subcutaneous tissue disorders: 5 (35.7) n (%)
  TEAE: Stomatitis: 1 (7.1) n (%)
  TEAE: Vomiting: 3 (21.4) n (%)
  related TEAE: Aspartate aminotransferase increased: 0 n (%)
  related TEAE: Blood and lymphatic system disorders: 0 n (%)
  related TEAE: Decreased appetite: 2 (14.3) n (%)
  related TEAE: Differentiation syndrome: 1 (7.1) n (%)
  related TEAE: Gastrointestinal disorders: 2 (14.3) n (%)
  related TEAE: General disorders and administration site conditions: 1 (7.1) n (%)
  related TEAE: Headache: 1 (7.1) n (%)
  related TEAE: Hypertriglyceridaemia: 0 n (%)
  related TEAE: Hyperuricaemia: 1 (7.1) n (%)
  related TEAE: Increased appetite: 1 (7.1) n (%)
  related TEAE: Investigations: 0 n (%)
  related TEAE: Leukocytosis: 0 n (%)
  related TEAE: Metabolism and nutrition disorders: 4 (28.6) n (%)
  related TEAE: Nausea: 2 (14.3) n (%)
  related TEAE: Neoplasms benign, malignant and unspecified (incl cysts and polyps): 1 (7.1) n (%)
  related TEAE: Nervous system disorders: 1 (7.1) n (%)
  related TEAE: Thirst: 1 (7.1) n (%)
  related TEAE: Vomiting: 2 (14.3) n (%)
Arm A N=14, ≥Grade 3
  Patients with Any TEAE: 14 (100.0) n (%)
  TEAE: Alanine aminotransferase increased: 0 n (%)
  TEAE: Anaemia: 4 (28.6) n (%)
  TEAE: Aspartate aminotransferase increased: 1 (7.1) n (%)
  TEAE: Blood and lymphatic system disorders: 8 (57.1) n (%)
  TEAE: Constipation: 0 n (%)
  TEAE: Decreased appetite: 0 n (%)
  TEAE: Disease progression: 1 (7.1) n (%)
  TEAE: Dyspnoea: 1 (7.1) n (%)
  TEAE: Epistaxis: 0 n (%)
  TEAE: Fatigue: 0 n (%)
  TEAE: Gastrointestinal disorders: 1 (7.1) n (%)
  TEAE: General disorders and administration site disorders: 2 (14.3) n (%)
  TEAE: Headache: 0 n (%)
  TEAE: Hemorrhoids: 0 n (%)
  TEAE: Hypertriglyceridaemia: 0 n (%)
  TEAE: Hypoalbuminaemia: 0 n (%)
  TEAE: Hypocalcaemia: 0 n (%)
  TEAE: Hypokalaemia: 0 n (%)
  TEAE: Hypomagnaesemia: 0 n (%)
  TEAE: Hyponatraemia: 0 n (%)
